Test results reported in ChEMBL document CHEMBL5724696, “Autophagy assay results for EUbOPEN Chemogenomics Library” (2024).
“And” between values parts separate entries of the source, which are not always exact repeats. Equal values may be shown once.

Experiments:
Type in all cases: functional, Homo sapiens
U2OS [1] = experiment: (§1) Here: values are normalized to the negative (DMSO; defined as 0% autophagy induction) and positive (250nM Torin1; mTOR inhibitor; defined as maximal inducer of autophagy = 100%) control compounds and represented as % of autophagy induction. […] The impact of autophagy induction on cells is complex and depends on the affected target. As such, the magnitude of a phenotype may not be equally mirrored in the %-value of autophagy induction and vice versa. The dynamics of the induction may indicate the mode of activation: e.g. activation via phosphorylation or a signaling cascade may occur fast, while activation via transcription factors may take considerably longer. […] Of note, treatment concentrations may be sub-optimal for specific compounds, leading to false negative annotations.; conditions: Culturing Media DMEM, 1 % Penicillin/Streptomycin, 10% Fetal bovin serum Add-On: No, Screening Media Control DMEM, Screening Media Samples DMEM
TERT-RPE1 = experiment: as §1; conditions: Culturing Media DMEM/F12 (1:1), 1 % Penicillin/Streptomycin, 10% Fetal bovin serum Add-On: No, Screening Media Control DMEM/F12 (1:1), Screening Media Samples DMEM/F12 (1:1)
U2OS [2] = experiment: as §1; conditions: Culturing Media DMEM, 1 % Penicillin/Streptomycin, 10% Fetal bovin serum Add-On: No, Screening Media Control DMEM, Screening Media Samples DMEM; remark: listed apart in the source
[3] = Compound Concentration 0.5 uM, Timepoint 12 hours
[4] = Compound Concentration 0.5 uM, Timepoint 24 hours
[5] = Compound Concentration 0.5 uM, Timepoint 36 hours
[6] = Compound Concentration 0.5 uM, Timepoint 60 hours
[7] = Compound Concentration 2 uM, Timepoint 12 hours
[8] = Compound Concentration 2 uM, Timepoint 24 hours
[9] = Compound Concentration 2 uM, Timepoint 36 hours
[10] = Compound Concentration 2 uM, Timepoint 60 hours
[11] = Compound Concentration 10 uM, Timepoint 12 hours
[12] = Compound Concentration 10 uM, Timepoint 24 hours
[13] = Compound Concentration 10 uM, Timepoint 36 hours
[14] = Compound Concentration 10 uM, Timepoint 60 hours

SMILES: Cl.Clc1cccc(COc2cncc(N3CCNCC3)n2)c1
- autophagy induction (U2OS [1]; [3]): -8.837%
- autophagy induction (U2OS [1]; [4]): -13.8803%
- autophagy induction (U2OS [1]; [5]): -7.736%
- autophagy induction (U2OS [1]; [6]): -11.4823%
- autophagy induction (U2OS [1]; [7]): 2.897%
- autophagy induction (U2OS [1]; [8]): 5.801%
- autophagy induction (U2OS [1]; [9]): -1.494%
- autophagy induction (U2OS [1]; [10]): -5.088%
- autophagy induction (U2OS [1]; [11]): 27.4058%
- autophagy induction (U2OS [1]; [12]): 16.7462%
- autophagy induction (U2OS [1]; [13]): 7.428%
- autophagy induction (U2OS [1]; [14]): 3.616%
- autophagy induction (TERT-RPE1; Compound Concentration 0.5 uM, Timepoint 12 hours, 12 h, 0.5 µM): -4.107% and -8.741%
- autophagy induction (TERT-RPE1; Compound Concentration 0.5 uM, Timepoint 24 hours, 24 h, 0.5 µM): -3.275% and -10.2873%
- autophagy induction (TERT-RPE1; Compound Concentration 0.5 uM, Timepoint 36 hours, 36 h, 0.5 µM): -5.346% and -10.5791%
- autophagy induction (TERT-RPE1; Compound Concentration 0.5 uM, Timepoint 60 hours, 60 h, 0.5 µM): -7.219% and -10.0498%
- autophagy induction (TERT-RPE1; Compound Concentration 2 uM, Timepoint 12 hours, 12 h, 2 µM): 0.7021% and -1.765%
- autophagy induction (TERT-RPE1; Compound Concentration 2 uM, Timepoint 24 hours, 24 h, 2 µM): 0.6926% and -5.584%
- autophagy induction (TERT-RPE1; Compound Concentration 2 uM, Timepoint 36 hours, 36 h, 2 µM): 0.3671% and -11.5088%
- autophagy induction (TERT-RPE1; Compound Concentration 2 uM, Timepoint 60 hours, 60 h, 2 µM): -2.572% and -13.6901%
- autophagy induction (TERT-RPE1; Compound Concentration 10 uM, Timepoint 12 hours, 12 h, 10 µM): 10.122% and -0.2214%
- autophagy induction (TERT-RPE1; Compound Concentration 10 uM, Timepoint 24 hours, 24 h, 10 µM): 9.832% and 0.1054%
- autophagy induction (TERT-RPE1; Compound Concentration 10 uM, Timepoint 36 hours, 36 h, 10 µM): 9.982% and -0.986%
- autophagy induction (TERT-RPE1; Compound Concentration 10 uM, Timepoint 60 hours, 60 h, 10 µM): 11.761% and 2.73%
- autophagy induction (U2OS [2]; [3]): 7.085%
- autophagy induction (U2OS [2]; [4]): -1.5773%
- autophagy induction (U2OS [2]; [5]): -58.983%
- autophagy induction (U2OS [2]; [6]): -0.334%
- autophagy induction (U2OS [2]; [7]): 2.459%
- autophagy induction (U2OS [2]; [8]): 2.019%
- autophagy induction (U2OS [2]; [9]): -56.8827%
- autophagy induction (U2OS [2]; [10]): 0.5358%
- autophagy induction (U2OS [2]; [11]): -3.089%
- autophagy induction (U2OS [2]; [12]): 5.923%
- autophagy induction (U2OS [2]; [13]): -56.0685%
- autophagy induction (U2OS [2]; [14]): -1.858%

SMILES: C[C@H](Cc1cc2c(c(C(N)=O)c1)N(CCCO)CC2)NCCOc1ccccc1OCC(F)(F)F [SILODOSIN]
- autophagy induction (U2OS [1]; [3]): 8.749%
- autophagy induction (U2OS [1]; [4]): -4.272%
- autophagy induction (U2OS [1]; [5]): -5.327%
- autophagy induction (U2OS [1]; [6]): -13.2389%
- autophagy induction (U2OS [1]; [7]): -4.216%
- autophagy induction (U2OS [1]; [8]): 0.5128%
- autophagy induction (U2OS [1]; [9]): -1.271%
- autophagy induction (U2OS [1]; [10]): -7.276%
- autophagy induction (U2OS [1]; [11]): 1.6%
- autophagy induction (U2OS [1]; [12]): 6.633%
- autophagy induction (U2OS [1]; [13]): 3.208%
- autophagy induction (U2OS [1]; [14]): 0.1621%
- autophagy induction (TERT-RPE1; [3]): -3.093%
- autophagy induction (TERT-RPE1; [4]): -6.268%
- autophagy induction (TERT-RPE1; [5]): -8.97%
- autophagy induction (TERT-RPE1; [6]): -13.239%
- autophagy induction (TERT-RPE1; [7]): -3.63%
- autophagy induction (TERT-RPE1; [8]): -5.97%
- autophagy induction (TERT-RPE1; [9]): -7.85%
- autophagy induction (TERT-RPE1; [10]): -11.8179%
- autophagy induction (TERT-RPE1; [11]): -0.1283%
- autophagy induction (TERT-RPE1; [12]): -0.9694%
- autophagy induction (TERT-RPE1; [13]): 1.604%
- autophagy induction (TERT-RPE1; [14]): -1.313%
- autophagy induction (U2OS [2]; [3]): -11.9601%
- autophagy induction (U2OS [2]; [4]): -4.037%
- autophagy induction (U2OS [2]; [5]): -2.198%
- autophagy induction (U2OS [2]; [6]): -1.72%
- autophagy induction (U2OS [2]; [7]): -7.096%
- autophagy induction (U2OS [2]; [8]): -4.088%
- autophagy induction (U2OS [2]; [9]): -2.301%
- autophagy induction (U2OS [2]; [10]): -1.816%
- autophagy induction (U2OS [2]; [11]): 0.9061%
- autophagy induction (U2OS [2]; [12]): 0.8821%
- autophagy induction (U2OS [2]; [13]): -0.4631%
- autophagy induction (U2OS [2]; [14]): -2.909%
